Read-outs that look alike come from different tables or passages of the source. Blank lines part the entries; values can stand above or below the molecule they belong to.
Key:
acute cystitis patients [1] = assay: Treatment of acute infection patients (Example 15, Comparative Example 1); settings: method A: minocycline alone 1000 mg/day for 5 days
acute cystitis patients [2] = settings: method A: Cephalexin alone; cited from earlier work
bacteria in plaque = assay: Live cell counts in plaque soaked in disinfectant (Test Example 4); assay type: cell-based; settings: 60 minutes of immersion
mouse skin wound = assay: Recovery of mouse skin wounds with bactericidal disinfectants (Test Example 5); assay type: in vivo
conjunctivitis patients = assay: Treatment of acute infection patients (Example 15, Comparative Example 1); settings: epidemic conjunctivitis; method A: Ofloxacin alone
acute colitis patients = assay: as above; settings: method A: Cefaclor alone 1000 mg/day for 5 days
[3] = test system: acute bronchitis patients; settings: method A: Cefaclor alone; cited from earlier work
[4] = applied every morning and night

Upset of intestinal flora (acute cystitis patients [1]): ++
SMILES: CN(C)c1ccc(O)c2c1C[C@H]1C[C@H]3[C@H](N(C)C)C(O)=C(C(N)=O)C(=O)[C@@]3(O)C(O)=C1C2=O [minocycline]

SMILES: CC1=C(C(=O)O)N2C(=O)[C@@H](NC(=O)[C@H](N)c3ccccc3)[C@H]2SC1 [Cephalexin]
Upset of intestinal flora (acute cystitis patients [2]): ++

SMILES: CC(O)C(=O)O.CCOc1ccc2nc3cc(N)ccc3c(N)c2c1 [Acrinol]
survival of bacteria inside the plaque (bacteria in plaque): half of the cells surviving | Recovery: Complete recovery (coat regrown) (mouse skin wound; [4]): 40 days | Recovery: Skin close to original thickness (mouse skin wound; [4]): 15 days | Recovery: Thin skin overall (mouse skin wound; applied every morning and night to about 1 cm^2 peeled mouse skin): 5 days

Upset of intestinal flora (conjunctivitis patients): −
SMILES: CC1COc2c(N3CCN(C)CC3)c(F)cc3c(=O)c(C(=O)O)cn1c23 (stereo not drawn) [Ofloxacin]

SMILES: N[C@@H](C(=O)N[C@@H]1C(=O)N2C(C(=O)O)=C(Cl)CS[C@H]12)c1ccccc1 [Cefaclor]
Upset of intestinal flora (acute colitis patients): ++ | Upset of intestinal flora [3]: ++

From US7863033B2, “Lactobacillus living body activating Lactobacillus preparation and preventive or therapeutic agent for living body infection” (BHPH Company Limited, priority 2003, dated 2011)
